Measurements taken from patent US20240158341A1, “COMPOUND, MANUFACTURING METHOD THEREFOR, ANTIMICROBIAL AGENT, AND MEDICINAL DRUG” (Murata Manufacturing Co., Ltd., priority 2021, published 2024).

Key:
yeasts = assay: Paper disc antimicrobial test, summary for yeasts; type: cell-based; details: against yeasts
Procedure: (§1) An antimicrobial test against the following bacteria and fungi was performed using a paper disc (6 mm, manufactured by ADVANTEC) containing the compound (1a-1).
(§2) (3) Yeast • Candida albicans
(§3) An antimicrobial test was performed with a 10 μg/6 mm disc, using the culture solution of the above bacteria and fungi. The test was conducted in accordance with the method described in Koyama et al., Calpinactam, a new anti-mycobacterial agent, produced by Mortierella alpina FKI-4905, The Journal of Antibiotics (2010) 63, pages 183 to 186.

Micrococcus luteus = assay: Paper disc antimicrobial test; type: cell-based; details: 10 μg/6 mm disc
Procedure: as §1
(§4) (1) Gram-Positive Bacteria • Mycobacterium smegmatis • Bacillus subtilis • Staphylococcus aureus • Micrococcus luteus
as §3

Staphylococcus aureus = assay: Paper disc antimicrobial test; type: cell-based; details: 10 μg/6 mm disc
Procedure: as §1, §4, §3

Bacillus subtilis = assay: Paper disc antimicrobial test; type: cell-based; details: 10 μg/6 mm disc
Procedure: as §1, §4, §3

Mycobacterium smegmatis = assay: Paper disc antimicrobial test; type: cell-based; details: 10 μg/6 mm disc
Procedure: as §1, §4, §3

Candida albicans = assay: Paper disc antimicrobial test; type: cell-based; details: 10 μg/6 mm disc
Procedure: as §1, §2, §3

gram-positive bacteria [1] = assay: Paper disc antimicrobial test, summary for gram-positive bacteria; type: cell-based; details: against gram-positive bacteria
Procedure: as §1, §4, §3

gram-positive bacteria [2] = details: against gram-positive bacteria; Non-Patent Literature 1; cited from earlier work

| Compound | antimicrobial action (yeasts) | Inhibitory zone (Micrococcus luteus) | Inhibitory zone (Staphylococcus aureus) | Inhibitory zone (Bacillus subtilis) | Inhibitory zone (Mycobacterium smegmatis) | Inhibitory zone (Candida albicans) | antimicrobial action (gram-positive bacteria [1]) | antimicrobial activity (gram-positive bacteria [2]) |
| --- | --- | --- | --- | --- | --- | --- | --- | --- |
| [C-]#[N+][C@@H](Cc1ccc(O)c(-c2cc(C[C@H](NN)C(N)=O)ccc2O)c1)C(N)=O [compound (1a-1)] | showed an antimicrobial action | 26 mm | 23 mm | 14 mm | 19 mm | 20 mm | showed an antimicrobial action |  |
| hazimycin A |  |  |  |  |  |  |  | had an antimicrobial activity |
